How the values were obtained:
[1] = target: T1, aldose reductase (Bos taurus, UniProt P16116); assay: in vitro inhibition of aldose reductase (modified Hayman and Kinoshita procedure, enzyme from bovine lens); assay type: biochemical; settings: for inhibition at 10 µM: 10^-5 M; for inhibition at 1 µM: 10^-6 M; for inhibition at 0.04 µM: 4 × 10^-8 M; for inhibition at 0.1 µM: 10^-7 M
T1 construct: in the preparation of the enzyme from bovine lens; from tissue; host or cells: bovine lens
Experimental: (c) The polyol determination was performed by a modification of the procedure of M. Kraml and L. Cosyns, Clin. Biochem., 2,373 (1969). Only two minor reagent changes were made: (a) The rinsing mixture was an aqueous 5% (w/v) trichloroacetic acid solution and (b) the stock solution was prepared by dissolving 25 mg of dulcitol in 100 ml of an aqueous trichloroacetic acid solution. [N.B.: For each experiment the average value found in the tissue from rats fed the glucose diet was subtracted from the individual values found in the corresponding tissue in galactose-fed rats to obtain the amount of polyol accumulated.] The aldose reductase inhibiting effects of the compounds of formula (I) were also tested by employing an in vitro testing procedure similar to that described by S. Hayman and J. H. Kinoshita, J. Biol. Chem., 240,877 (1965). In the present case the procedure of Hayman and Kinoshita was modified in that the final chromatography step was omitted in the preparation of the enzyme from bovine lens. […] The figures under L and N represent the percentage decrease of dulcitol accumulation in the tissues of the lens and sciatic nerve, respectively, for treated rats as compared to untreated rats.

[2] = test system: dulcitol accumulation in sciatic nerve; assay: in vivo lowering of dulcitol accumulation in sciatic nerve of galactosemic rats; parameters: species or system rat (Sprague-Dawley); settings: in diet, four days
Excerpt: (§1) The aldose reductase inhibiting property of the compounds of this invention and the utilization of the compounds in preventing, diminishing and alleviating diabetic complications are demonstrable in experiments using galactosemic rats, see Dvornik et al., Science, 182, 1146 (1973). Such experiments are exemplified hereinbelow after the listing of the following general comments pertaining to these experiments:
(§2) (a) Four or more groups of six male rats, 50-70 g, Sprague-Dawley strain, were used. The first group, the control group, was fed a mixture of laboratory chow (Rodent Laboratory Chow, Purina) and glucose at 20% (w/w %) concentration. The untreated galactosemic group was fed a similar diet in which galactose is substituted for glucose. The third group was fed a diet prepared by mixing a given amount of the test compound with the galactose containing diet. The concentration of the galactose in the diet of the treated groups was the same as that for the untreated galactosemic group.
(§3) (b) After four days, the animals were killed by euthanization. The lenses were removed from the eyes and weighed. The sciatic nerves were dissected as completely as possible and weighed. Both tissues when frozen can be kept up to two weeks before being analyzed for dulcitol.
(c) The polyol determination was performed by a modification of the procedure of M. Kraml and L. Cosyns, Clin. Biochem., 2,373 (1969). Only two minor reagent changes were made: (a) The rinsing mixture was an aqueous 5% (w/v) trichloroacetic acid solution and (b) the stock solution was prepared by dissolving 25 mg of dulcitol in 100 ml of an aqueous trichloroacetic acid solution. [N.B.: For each experiment the average value found in the tissue from rats fed the glucose diet was subtracted from the individual values found in the corresponding tissue in galactose-fed rats to obtain the amount of polyol accumulated.] The aldose reductase inhibiting effects of the compounds of formula (I) were also tested by employing an in vitro testing procedure similar to that described by S. Hayman and J. H. Kinoshita, J. Biol. Chem., 240,877 (1965). In the present case the procedure of Hayman and Kinoshita was modified in that the final chromatography step was omitted in the preparation of the enzyme from bovine lens.
The figures under L and N represent the percentage decrease of dulcitol accumulation in the tissues of the lens and sciatic nerve, respectively, for treated rats as compared to untreated rats.

[3] = test system: dulcitol accumulation in lens; assay: in vivo lowering of dulcitol accumulation in lens of galactosemic rats; parameters: species or system rat (Sprague-Dawley); settings: in diet, four days
Excerpt: as §1, §2, §3
(c) The polyol determination was performed by a modification of the procedure of M. Kraml and L. Cosyns, Clin. Biochem., 2,373 (1969). Only two minor reagent changes were made: (a) The rinsing mixture was an aqueous 5% (w/v) trichloroacetic acid solution and (b) the stock solution was prepared by dissolving 25 mg of dulcitol in 100 ml of an aqueous trichloroacetic acid solution. [N.B.: For each experiment the average value found in the tissue from rats fed the glucose diet was subtracted from the individual values found in the corresponding tissue in galactose-fed rats to obtain the amount of polyol accumulated.] […]

CCOC(=O)NC(=O)CC1C(=O)N(C)C(=O)c2ccc(Cl)cc21 (stereo not shown) [-6Cl, H, CH3, NHCO2 C2 H5, [(6-chloro-1,2,3,4-tetrahydro-2-methyl-1,3-dioxo-4-isoquinolinyl)acetyl]carbamic acid ethyl ester]
inhibition at 10 µM [1]: 14.5% | % Lowering Ducitol Accumulation In vivo, Nerve ([2]; 24.5 mg/kg): 34%

COC(=O)NC(=O)CC1C(=O)N(Cc2ccc(Br)cc2F)C(=O)c2ccc(F)cc21 (stereo not shown) [[[2-[(4-Bromo-2-fluorophenyl)methyl]-6-fluoro-1,2,3,4-tetrahydro-1,3-dioxo-4-isoquinolinyl]acetyl]carbamic Acid Methyl Ester]
inhibition at 10 µM [1]: 55% | inhibition at 1 µM [1]: 18% | % Lowering Ducitol Accumulation In vivo, Nerve ([2]; 26 mg/kg): 78%

O=C(O)CC1C(=O)N(Cc2ccc(Br)cc2F)C(=O)c2ccc(F)cc21 (stereo not shown) [2-[(4-Bromo-2-fluorophenyl)methyl]-6-fluoro-1,2,3,4-tetrahydro-1,3-dioxo-4-isoquinolineacetic Acid]
inhibition at 0.04 µM [1]: 80% | inhibition at 10 µM [1]: 96% | inhibition at 1 µM [1]: 91% | inhibition at 0.1 µM [1]: 86% | % Lowering Ducitol Accumulation In vivo, Nerve ([2]; 25 mg/kg): 47%

COC(=O)NC(=O)CC1C(=O)N(C)C(=O)c2ccc(Cl)cc21 (stereo not shown) [6Cl, H, CH3, NHCO2 CH3, [(6-chloro-1,2,3,4-tetrahydro-2-methyl-1,3-dioxo-4-isoquinolinyl)acetyl]carbamic acid methyl ester]
inhibition at 10 µM [1]: 64.5% | inhibition at 1 µM [1]: 26.6% | % Lowering Ducitol Accumulation In vivo, Lens ([3]; 25 mg/kg): 24% | % Lowering Ducitol Accumulation In vivo, Lens ([3]; 86.1 mg/kg): 55% | % Lowering Ducitol Accumulation In vivo, Nerve ([2]; 25 mg/kg): 53% | % Lowering Ducitol Accumulation In vivo, Nerve ([2]; 86.1 mg/kg): 81%

COC(=O)NC(=O)CC1C(=O)N(C)C(=O)c2cc(Cl)ccc21 (stereo not shown) [7Cl, CH3, NHCO2 CH3, [(7-chloro-1,2,3,4-tetrahydro-2-methyl-1,3-dioxo-4-isoquinolinyl)acetyl]carbamic acid methyl ester]
inhibition at 10 µM [1]: 50% | inhibition at 1 µM [1]: 17% | % Lowering Ducitol Accumulation In vivo, Nerve ([2]; 24.3 mg/kg): 28%

COC(=O)NC(=O)CC1C(=O)N(C)C(=O)c2ccccc21 (stereo not shown) [H, H, CH3, NHCO2 CH3, [(1,2,3,4-Tetrahydro-2-methyl-1,3-dioxo-4-isoquinolinyl)acetyl]carbamic Acid Methyl Ester]
inhibition at 10 µM [1]: 61% | % Inhibition in vitro ([1]; 10^- M (exponent not given)): 11% | % Lowering Ducitol Accumulation In vivo, Lens ([3]; 85.0 mg/kg): 37.2% | % Lowering Ducitol Accumulation In vivo, Nerve ([2]; 26.8 mg/kg): 21.2% | % Lowering Ducitol Accumulation In vivo, Nerve ([2]; 85.0 mg/kg): 58.6%

O=C(O)CC1C(=O)N(Cc2ccc(Br)cc2F)C(=O)c2ccccc21 (stereo not shown) [2-[(4-Bromo-2-fluorophenyl)methyl]-1,2,3,4-tetrahydro-1,3-dioxo-4-isoquinolineacetic Acid]
inhibition at 0.04 µM [1]: 50% | inhibition at 10 µM [1]: 94% | inhibition at 1 µM [1]: 91% | inhibition at 0.1 µM [1]: 88%
